Measurements published in US9920061B2, “Imidazo[1,5-A]pyrimidinyl carboxamide compounds and their use in the treatment of medical disorders” (Lysosomal Therapeutics Inc., priority 2016, dated 2018).
Values after ≈ are worked out from the molar mass of the structure shown.

Experiments:
[1] = target: T1, glucocerebrosidase (Gcase) (Homo sapiens, UniProt P04062); test: Glucocerebrosidase (Gcase) activation assay, 4-methylumbelliferyl-beta-D-glucopyranoside substrate, with saposin C; format: biochemical; settings: for activation at 0.1 µM: test compound at 0.1 μM, read-out: Percent Gcase Activation, 0.1 μM Test Compound; for activation at 1 µM: test compound at 1.0 μM, read-out: Percent Gcase Activation, 1 μM Test Compound
T1 sequence (P04062 40-536): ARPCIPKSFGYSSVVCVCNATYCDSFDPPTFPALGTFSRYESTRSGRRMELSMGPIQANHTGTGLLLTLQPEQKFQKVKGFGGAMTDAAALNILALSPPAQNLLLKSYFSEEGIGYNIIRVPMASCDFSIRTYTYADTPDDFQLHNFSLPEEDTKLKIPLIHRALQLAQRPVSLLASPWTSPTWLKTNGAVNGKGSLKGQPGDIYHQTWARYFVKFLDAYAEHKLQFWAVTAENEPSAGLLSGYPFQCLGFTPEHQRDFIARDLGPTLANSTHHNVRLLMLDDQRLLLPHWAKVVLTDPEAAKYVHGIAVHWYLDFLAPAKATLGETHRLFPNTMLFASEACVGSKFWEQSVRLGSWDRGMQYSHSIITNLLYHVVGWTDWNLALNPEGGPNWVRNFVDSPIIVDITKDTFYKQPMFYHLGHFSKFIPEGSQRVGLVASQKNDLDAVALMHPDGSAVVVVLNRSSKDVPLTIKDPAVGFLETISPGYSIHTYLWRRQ
Method in brief: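 Micellar buffer (176 mM K2HPO4/50 mM citric acid, pH 4.7; 0.32 mM triton, 0.37 mol % PS) holding 10 nM GCase and 100 nM saposin C, pre-incubated with compound 30 min at room temperature. Substrate final 2 mM before mixing; 15 min reaction, glycine pH 12.5 stop, fluorescence 365/440 nm. Screened at 1.0 and 0.1 μM; 8-point, 3-fold dose response.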

[2] = Compound solubility in water; format: physicochemical; settings: in water

Compound	activation at 0.1 µM [1]	activation at 1 µM [1]	solubility [2]
Cc1cc(-c2ccc3c(c2)OCO3)nc2c(C(=O)N[C@H](C)C(F)(F)F)ncn12 [IV-77]	> 20%	> 60%	1.3 µg/mL (≈ 3.31 µM)
Cc1cc(-c2ccc3c(c2)OCO3)nc2c(C(=O)N[C@@H](C)C(F)(F)F)ncn12 [IV-78]	> 20%	> 60%	3.3 µg/mL (≈ 8.41 µM)
Cc1cc(-c2cccc(-c3ncncn3)c2)nc2c(C(=O)NC(C3CC3)C(F)(F)F)ncn12 (stereo not drawn) [IV-79]	> 20%	> 60%	0.5 µg/mL (≈ 1.1 µM)
Cc1cc(-c2ccc(F)cc2C#N)nc2c(C(=O)NC(C3CC3)C(F)(F)F)ncn12 (stereo not drawn) [IV-80]	> 20%	> 60%	3.7 µg/mL (≈ 8.87 µM)
Cc1cc(-c2cc(C#N)co2)nc2c(C(=O)NC(C3CC3)C(F)(F)F)ncn12 (stereo not drawn) [IV-81]	10 to 20%	> 60%	1 µg/mL (≈ 2.57 µM)
Cc1cc(-c2occc2C#N)nc2c(C(=O)NC(C3CC3)C(F)(F)F)ncn12 (stereo not drawn) [IV-82]	> 20%	> 60%	1.9 µg/mL (≈ 4.88 µM)
Cc1cc(-c2ccco2)nc2c(C(=O)NC(C3CC3)C(F)(F)F)ncn12 (stereo not drawn) [IV-83]	> 20%	> 60%	1.2 µg/mL (≈ 3.29 µM)
Cc1cc(-c2ccoc2)nc2c(C(=O)NC(C3CC3)C(F)(F)F)ncn12 (stereo not drawn) [IV-84]	> 20%	> 60%	3.2 µg/mL (≈ 8.78 µM)
Cc1cc(-c2cc(C#N)cs2)nc2c(C(=O)NC(C3CC3)C(F)(F)F)ncn12 (stereo not drawn) [IV-85]	> 20%	> 60%	5.9 µg/mL (≈ 14.6 µM)
Cc1cc(-c2ccc(C#N)s2)nc2c(C(=O)NC(C3CC3)C(F)(F)F)ncn12 (stereo not drawn) [IV-86]	> 20%	> 60%	3.6 µg/mL (≈ 8.88 µM)
Cc1cc(-c2csc(C#N)c2)nc2c(C(=O)NC(C3CC3)C(F)(F)F)ncn12 (stereo not drawn) [IV-87]	> 20%	> 60%	9.2 µg/mL (≈ 22.7 µM)
Cc1cc(-c2ccsc2C#N)nc2c(C(=O)NC(C3CC3)C(F)(F)F)ncn12 (stereo not drawn) [IV-88]	> 20%	> 60%	0.3 µg/mL (≈ 0.74 µM)
Cc1cc(N2CCCN(C(C)C)C2=O)nc2c(C(=O)NC(C3CC3)C(F)(F)F)ncn12 (stereo not drawn) [IV-89]	< 10%	< 30%	25.6 µg/mL (≈ 58.4 µM)
CCc1cc(N2CCN(CC(F)(F)F)C2=O)nc2c(C(=O)NC(C3CC3)C(F)(F)F)ncn12 (stereo not drawn) [IV-90]	10 to 20%	> 60%	25.6 µg/mL (≈ 53.5 µM)
Cc1cc(C#N)c(-c2cc(C)n3cnc(C(=O)NC(C4CC4)C(F)(F)F)c3n2)o1 (stereo not drawn) [IV-92]	> 20%	> 60%	0.3 µg/mL (≈ 0.744 µM)
Cc1sc(C#N)cc1-c1cc(C)n2cnc(C(=O)NC(C3CC3)C(F)(F)F)c2n1 (stereo not drawn) [IV-95]	> 20%	> 60%	2.5 µg/mL (≈ 5.96 µM)
Cc1cc(C(=O)Nc2ccccc2)nc2c(C(=O)NC(C3CC3)C(F)(F)F)ncn12 (stereo not drawn) [IV-100]	< 10%	< 30%	6.2 µg/mL (≈ 14.9 µM)

Compound	activation at 0.1 µM [1]	activation at 1 µM [1]	solubility [2]
Cc1cc(-c2cccc(OC(F)(F)F)n2)nc2c(C(=O)N[C@@H](C)C3CC3)ncn12 [IV-101]	> 20%	> 60%	1.5 µg/mL (≈ 3.7 µM)
CCOc1cccc(-c2cc(C)n3cnc(C(=O)NC(C4CC4)C(F)(F)F)c3n2)n1 (stereo not drawn) [IV-102]	> 20%	> 60%	7.8 µg/mL (≈ 18.6 µM)
COc1ccc(F)c(-c2cc(C)n3cnc(C(=O)NC(C)(C)C)c3n2)c1 [IV-103]	10 to 20%	> 60%	0.7 µg/mL (≈ 1.96 µM)
COc1ccc(F)c(-c2cc(C)n3cnc(C(=O)NC(C)C(F)(F)F)c3n2)c1 (stereo not drawn) [IV-104]	> 20%	> 60%	0.7 µg/mL (≈ 1.77 µM)
CCc1cc(-c2ccns2)nc2c(C(=O)NC(C)(C)C)ncn12 [IV-105]	10 to 20%	> 60%	15.9 µg/mL (≈ 48.3 µM)
CCc1cc(-c2ccsn2)nc2c(C(=O)NC(C3CC3)C(F)(F)F)ncn12 (stereo not drawn) [IV-106]	> 20%	> 60%	0.6 µg/mL (≈ 1.52 µM)
CCc1cc(N2CCC(C)(C)C2=O)nc2c(C(=O)NC(C3CC3)C(F)(F)F)ncn12 (stereo not drawn) [IV-107]	10 to 20%	> 60%	29.6 µg/mL (≈ 69.9 µM)
Cc1cc(-c2cc(F)ccc2C#N)nc2c(C(=O)NC(C3CC3)C(F)(F)F)ncn12 (stereo not drawn) [IV-108]	> 20%	> 60%	0.7 µg/mL (≈ 1.68 µM)
Cc1cc(-c2ccccc2C#N)nc2c(C(=O)NC(C)(C)C)ncn12 [IV-109]	< 10%	30 to 60%	2.5 µg/mL (≈ 7.5 µM)
Cc1cc(-c2cc(F)cc(C#N)c2)nc2c(C(=O)NC(C3CC3)C(F)(F)F)ncn12 (stereo not drawn) [IV-110]	> 20%	> 60%	1.2 µg/mL (≈ 2.88 µM)
Cc1cc(-c2cc(F)cc(C#N)c2)nc2c(C(=O)NC(C)(C)C)ncn12 [IV-111]	10 to 20%	> 60%	0.9 µg/mL (≈ 2.56 µM)
Cc1cc(-c2cccc(C(N)=O)c2)nc2c(C(=O)NC(C3CC3)C(F)(F)F)ncn12 (stereo not drawn) [IV-112]	10 to 20%	> 60%	1.1 µg/mL (≈ 2.64 µM)
Cc1cc(N2CCCC(F)(F)C2)nc2c(C(=O)NC(C3CC3)C(F)(F)F)ncn12 (stereo not drawn) [IV-113]	> 20%	> 60%	17.2 µg/mL (≈ 41.2 µM)
Cc1cc(Oc2cccnc2)nc2c(C(=O)N[C@@H](C)C3CC3)ncn12 [IV-114]	< 10%	< 30%	32.8 µg/mL (≈ 97.2 µM)
Cc1cc(Oc2ccncc2)nc2c(C(=O)N[C@@H](C)C3CC3)ncn12 [IV-115]	< 10%	< 30%	29.6 µg/mL (≈ 87.7 µM)
Cc1cc(-c2cccc(-c3ncccn3)c2)nc2c(C(=O)NC(C3CC3)C(F)(F)F)ncn12 (stereo not drawn) [IV- 61]	> 20%	> 60%	1.1 µg/mL (≈ 2.43 µM)
